What was measured:
[1] = target: human D2 receptor (Homo sapiens (Human), UniProt P14416); assay: Radioligand binding ([3H]-spiperone) to human D2 receptor, HEK293 EBNA membranes; conditions: HEK293 EBNA cells expressing human D2 receptor
Procedure: (§1) HEK293 EBNA cells were transiently transfected with expression plasmids encoding for the human D2 or D3 or for the human 5-HT2A receptor, respectively. The cells were harvested 48 h post-transfection, washed three times with cold PBS and stored at −80° C. prior to use. The pellet was suspended in cold 50 mM Tris-HCl buffer containing 10 mM EDTA (pH 7.4) and was homogenized with a Polytron (Kinematica AG, Basel, Switzerland) for 20-30 sec at 12.000 rpm. After centrifugation at 48.000×g for 30 min at 4° C., the pellet was resuspended in cold 10 mM Tris-HCl buffer containing 0.1 mM EDTA (pH 7.4), homogenized, and centrifuged as above. This pellet was further resuspended in a smaller volume of ice cold 10 mM Tris-HCl buffer containing 0.1 mM EDTA (pH 7.4) and homogenized with a Polytron for 20-30 sec at 12.000 rpm. The protein content of this homogenate was determined with the Bio-Rad (Bradford) Protein Assay (Biorad Laboratories GmbH, München, Germany) according to the instructions of the manufacturer using gamma globulin as the standard. This homogenate was stored at −80° C. in aliquots and thawed immediately prior to use.
(§2) Aliquots of membrane preparations were thawed at RT, resuspended in assay buffer (D2, D3: 50 mM Tris-HCl, 120 mM NaCl, 5 mM MgCl2, 1 mM EDTA, 5 mM KCl, 1.5 mM CaCl2, pH=7.4; 5-HT2A: 50 mM Tris-HCl, 10 mM MgCl2, 1 mM EGTA, pH=7.4), homogenized with a Polytron for 20-30 sec at 12.000 rpm and adjusted to a final concentration of approximately 7.5 μg protein/well (D2, D3) and 15 μg protein/well (5-HT2A), respectively.
(§3) The binding affinity (Ki) of the compounds was determined using radioligand binding.
(§4) Membranes were incubated in a total volume of 200 μl with a fixed concentration of radioligand (final concentration approximately 0.7 nM [^3H]-spiperone for D2, 0.5 nM [^3 H]-spiperone for D3, and 1.1 nM [^3H]-ketanserin for 5-HT2A) and ten concentrations of test compound in ranging between 10 μM-0.1 nM for 1 h at RT. At the end of the incubation, the reaction mixtures were filtered on to unifilter 96-well white microplates with bonded GF/C filters (Packard BioScience, Zürich, Switzerland; preincubated for 1 h in 0.1% polyethylenimine (PEI) in assay buffer) with a Filtermate 196 harvester (Packard BioScience) and washed 3 times with cold assay buffer. The nonspecific binding was determined with equally composed reaction mixtures in the presence of 10 μM unlabelled spiperone. Per well 45 μl of Microscint 40 (Perkin Elmer, Schwerzenbach, Switzerland) was added, plates for sealed, shaken for 20 min and counted for 3 min on a Topcount Microplate Scintillation Counter (Canberra Packard SA, Zürich, Switzerland) with quenching correction.
(§5) The CPM value for each duplicate of a concentration of competing compound was averaged (y1), then the % specific binding was calculated according to the equation (((y1−non-specific)/(total binding−non-specific))×100). Graphs were plotted with the % specific binding using XLfit, a curve-fitting program that iteratively plots the data using Levenberg-Marquardt algorithm. The single site competition analysis equation used was y=A+((B−A)/(1+((x/C)D))), where y is the % specific binding, A is the minimum y, B is the maximum y, C is the IC50, x is the log 10 of the concentration of the competing compound and D is the slope of the curve (the Hill Coefficient). From these curves the IC50 (inhibition concentration at which 50% specific binding of the radioligand was displaced) and Hill coefficient were determined. The affinity constant (Ki) was calculated using the Cheng-Prusoff equation Ki=(IC50/1+([L]/Kd), where [L] is the concentration of radioligand and Kd is the dissociation constant of the radioligand at the receptor as determined by the saturation isotherm.

[2] = target: human 5-HT2A receptor (Homo sapiens (Human), UniProt P28223); assay: Radioligand binding ([3H]-ketanserin) to human 5-HT2A receptor, HEK293 EBNA membranes; conditions: HEK293 EBNA cells expressing human 5-HT2A receptor
human 5-HT2A receptor, sequence (P28223 whole entry): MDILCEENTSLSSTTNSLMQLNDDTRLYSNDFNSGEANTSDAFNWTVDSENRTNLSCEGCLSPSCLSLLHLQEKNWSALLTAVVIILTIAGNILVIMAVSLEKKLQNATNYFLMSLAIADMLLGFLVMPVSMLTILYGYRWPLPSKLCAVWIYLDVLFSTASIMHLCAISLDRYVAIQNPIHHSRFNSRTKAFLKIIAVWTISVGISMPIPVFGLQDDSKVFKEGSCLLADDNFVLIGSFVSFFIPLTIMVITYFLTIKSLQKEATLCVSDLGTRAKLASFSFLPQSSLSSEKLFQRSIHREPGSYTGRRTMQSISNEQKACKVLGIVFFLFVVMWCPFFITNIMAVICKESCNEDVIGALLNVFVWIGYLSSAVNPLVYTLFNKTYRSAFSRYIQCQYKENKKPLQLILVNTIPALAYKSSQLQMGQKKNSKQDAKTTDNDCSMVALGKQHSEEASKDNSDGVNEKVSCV
Procedure: The ability of the compounds to bind to the 5-HT2A, D3 and D2 receptors was determined using radioligand binding to cloned receptors selectively expressed in HEK-293 EBNA cells.
as §1, §2, §3, §4, §5

[3] = target: human D3 receptor (Homo sapiens (Human), UniProt P35462); assay: Radioligand binding ([3H]-spiperone) to human D3 receptor, HEK293 EBNA membranes; conditions: HEK293 EBNA cells expressing human D3 receptor
human D3 receptor, sequence (P35462 whole entry): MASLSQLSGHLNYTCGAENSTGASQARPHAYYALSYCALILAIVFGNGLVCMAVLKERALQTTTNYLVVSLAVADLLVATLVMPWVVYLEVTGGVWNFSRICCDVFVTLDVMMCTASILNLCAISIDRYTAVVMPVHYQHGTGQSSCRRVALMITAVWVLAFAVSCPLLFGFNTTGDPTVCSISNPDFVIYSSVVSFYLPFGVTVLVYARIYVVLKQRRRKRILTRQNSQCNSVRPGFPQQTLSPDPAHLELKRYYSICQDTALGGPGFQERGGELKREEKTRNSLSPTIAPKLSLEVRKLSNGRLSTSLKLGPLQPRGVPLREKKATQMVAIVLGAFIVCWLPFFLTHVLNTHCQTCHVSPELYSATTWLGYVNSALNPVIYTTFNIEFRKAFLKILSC
Procedure: as §1, §2, §3, §4, §5

human D2 receptor, sequence (P14416 whole entry): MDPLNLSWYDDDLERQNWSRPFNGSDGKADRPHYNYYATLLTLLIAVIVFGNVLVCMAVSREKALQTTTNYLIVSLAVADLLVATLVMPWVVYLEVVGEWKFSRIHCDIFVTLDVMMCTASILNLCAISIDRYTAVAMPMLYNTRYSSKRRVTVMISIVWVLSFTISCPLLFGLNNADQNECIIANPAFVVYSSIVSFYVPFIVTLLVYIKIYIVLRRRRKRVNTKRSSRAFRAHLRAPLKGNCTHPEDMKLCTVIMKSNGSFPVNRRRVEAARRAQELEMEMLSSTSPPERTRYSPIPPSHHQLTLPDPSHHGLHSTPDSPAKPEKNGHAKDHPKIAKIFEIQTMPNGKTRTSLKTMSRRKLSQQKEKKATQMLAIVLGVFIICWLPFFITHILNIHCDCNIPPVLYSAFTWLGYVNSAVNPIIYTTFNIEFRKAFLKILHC

Row | Compound | melting point [°C] | Ki [1] [nM] | Ki [2] [nM] | Ki [3] [nM]
1 | CC#CC(=O)N[C@H]1CC[C@H](CCN2CCC(c3coc4ccccc34)CC2)CC1 [Example 55, But-2-ynoic acid trans-{4-[2-(4-benzofuran-3-yl-piperidin-1-yl)-ethyl]-cyclohexyl}-amide] | 161 | 25.6 | 7.89 | 2.09
2 | O=C(N[C@H]1CC[C@H](CCN2CCC(c3coc4ccccc34)CC2)CC1)c1cnc(N2CCOCC2)cn1 [Example 67, 5-Morpholin-4-yl-pyrazine-2-carboxylic acid trans-{4-[2-(4-benzofuran-3-yl-piperidin-1-yl)-ethyl]-cyclohexyl}-amide] | 202 | 106 | 8.2 | 7.72
3 | Cc1nc(-c2ccc(C(=O)N[C@H]3CC[C@H](CCN4CCC(c5coc6ccccc56)CC4)CC3)cc2)no1 [Example 61, trans-N-{4-[2-(4-Benzofuran-3-yl-piperidin-1-yl)-ethyl]-cyclohexyl}-4-(5-methyl-[1,2,4]oxadiazol-3-yl)-benzamide] | 194 | 227 | 15.1 | 2.87
4 | CCC(=O)N[C@H]1CC[C@H](CCN2CCC(c3coc4ccccc34)CC2)CC1 [Example 5, trans-N-{4-[2-(4-Benzofuran-3-yl-piperidin-1-yl)-ethyl]-cyclohexyl}-propionamide] | 162 | 48.1 | 4.52 | 1.23
5 | CS(=O)(=O)c1ccc(C(=O)N[C@H]2CC[C@H](CCN3CCC(c4coc5ccccc45)CC3)CC2)cc1 [Example 86, trans-N-{4-[2-(4-Benzofuran-3-yl-piperidin-1-yl)-ethyl]-cyclohexyl}-4-methanesulfonyl-benzamide] | 224 | 79.5 | 5.79 | 25
6 | CC(=O)N[C@H]1CC[C@H](CCN2CCC(c3coc4ccccc34)CC2)CC1 [Example 1, trans-N-{4-[2-(4-Benzofuran-3-yl-piperidin-1-yl)-ethyl]-cyclohexyl}-acetamide] | 162 | 50.4 | 5.08 | 1.08
7 | O=C(CC1COCCO1)N[C@H]1CC[C@H](CCN2CCC(c3coc4ccccc34)CC2)CC1 (mixture of isomers) [Example 8, trans-N-{4-[2-(4-Benzofuran-3-yl-piperidin-1-yl)-ethyl]-cyclohexyl}-(RS)-2-[1,4]dioxan-2-yl-acetamide] | 172 |  | 2.04 | 2.02
8 | CC(C)(C)Oc1ccc(C(=O)N[C@H]2CC[C@H](CCN3CCC(c4coc5ccccc45)CC3)CC2)cc1 [Example 71, trans-N-{4-[2-(4-Benzofuran-3-yl-piperidin-1-yl)-ethyl]-cyclohexyl}-4-tert-butoxy-benzamide] | 186 | 168 | 5.56 | 2.14
9 | CC(C)(O)C(=O)N[C@H]1CC[C@H](CCN2CCC(c3coc4ccccc34)CC2)CC1 [Example 16, trans-N-{4-[2-(4-Benzofuran-3-yl-piperidin-1-yl)-ethyl]-cyclohexyl}-2-hydroxy-2-methyl-propionamide] | 169 | 53.7 | 2.25 | 5.51
10 | O=C(N[C@H]1CC[C@H](CCN2CCC(c3coc4ccccc34)CC2)CC1)c1ccc2ncccc2c1 [Example 73, Quinoline-6-carboxylic acid trans-{4-[2-(4-benzofuran-3-yl-piperidin-1-yl)-ethyl]-cyclohexyl}-amide] | 192 | 103 | 11 | 2.42
11 | O=C(CC(F)(F)F)N[C@H]1CC[C@H](CCN2CCC(c3coc4ccccc34)CC2)CC1 [Example 12, trans-N-{4-[2-(4-Benzofuran-3-yl-piperidin-1-yl)-ethyl]-cyclohexyl}-3,3,3-trifluoro-propionamide] | 182 | 42.7 | 8.06 | 0.99
12 | CC(C)(C)c1ccc(S(=O)(=O)N[C@H]2CC[C@H](CCN3CCC(c4coc5ccccc45)CC3)CC2)cc1 [Example 88, trans-N-{4-[2-(4-Benzofuran-3-yl-piperidin-1-yl)-ethyl]-cyclohexyl}-4-tert-butyl-benzenesulfonamide] | 171 | 70 | 31.5 | 12.1
13 | O=C(N[C@H]1CC[C@H](CCN2CCC(c3coc4ccccc34)CC2)CC1)c1ccc2c(c1)OCO2 [Example 58, Benzo[1,3]dioxole-5-carboxylic acid trans-{4-[2-(4-benzofuran-3-yl-piperidin-1-yl)-ethyl]-cyclohexyl}-amide] | 198 | 28.6 | 8.78 | 2.79
14 | Cc1cc(CC(=O)N[C@H]2CC[C@H](CCN3CCC(c4coc5ccccc45)CC3)CC2)on1 [Example 10, trans-N-{4-[2-(4-Benzofuran-3-yl-piperidin-1-yl)-ethyl]-cyclohexyl}-2-(3-methyl-isoxazol-5-yl)-acetamide] | 165 | 83.6 | 7.71 | 0.68
15 | CN(C)C(=O)CCC(=O)N[C@H]1CC[C@H](CCN2CCC(c3coc4ccccc34)CC2)CC1 [Example 42, trans-N-{4-[2-(4-Benzofuran-3-yl-piperidin-1-yl)-ethyl]-cyclohexyl}-N′,N′-dimethyl-succinamide] | 167 | 92.3 | 7.8 | 2.43
16 | CC(C)(C)c1ccc(C(=O)N[C@H]2CC[C@H](CCN3CCC(c4coc5ccccc45)CC3)CC2)cc1 [Example 60, trans-N-{4-[2-(4-Benzofuran-3-yl-piperidin-1-yl)-ethyl]-cyclohexyl}-4-tert-butyl-benzamide] | 180 | 1110 | 3.77 | 10.1
17 | CCS(=O)(=O)N[C@H]1CC[C@H](CCN2CCC(c3coc4ccccc34)CC2)CC1 [Example 37, Ethanesulfonic acid trans-{4-[2-(4-benzofuran-3-yl-piperidin-1-yl)-ethyl]-cyclohexyl}-amide] | 153 | 48 | 5.07 | 2.87
18 | CN1CCN(c2ccc(C(=O)N[C@H]3CC[C@H](CCN4CCC(c5coc6ccccc56)CC4)CC3)cc2)CC1 [Example 62, trans-N-{4-[2-(4-Benzofuran-3-yl-piperidin-1-yl)-ethyl]-cyclohexyl}-4-(4-methyl-piperazin-1-yl)-benzamide] | 242 | 50.1 | 8.83 | 6.03
19 | CS(=O)(=O)N[C@H]1CC[C@H](CCN2CCC(c3coc4ccccc34)CC2)CC1 [Example 36, trans-N-{4-[2-(4-Benzofuran-3-yl-piperidin-1-yl)-ethyl]-cyclohexyl}-methanesulfonamide] | 142 | 47.4 | 5.43 | 2.85
20 | O=C(N[C@H]1CC[C@H](CCN2CCC(c3coc4ccccc34)CC2)CC1)C1CCOC1 (mixture of isomers) [Example 17, (RS)-Tetrahydro-furan-3-carboxylic acid trans-{4-[2-(4-benzofuran-3-yl-piperidin-1-yl)-ethyl]-cyclohexyl}-amide] | 183 | 53 | 5.93 | 
